# Test results from BigSolDB 2.1.
smiles,measurement,setting,value
CC(=O)OCC(=O)[C@@]12N=C(C)O[C@@H]1C[C@H]1[C@@H]3CCC4=CC(=O)C=C[C@]4(C)[C@H]3[C@@H](O)C[C@@]12C,solubility (mole fraction),"in acetone, 293.15 K",0.00618
same,solubility (mole fraction),"in acetone, 298.15 K",0.00674
same,solubility (mole fraction),"in acetone, 303.15 K",0.00735
same,solubility (mole fraction),"in acetone, 308.15 K",0.00797
same,solubility (mole fraction),"in acetone, 313.15 K",0.00861
same,solubility (mole fraction),"in acetone, 318.15 K",0.00946
same,solubility (mole fraction),"in acetone, 323.15 K",0.0104
same,solubility (mole fraction),"in ethanol, 293.15 K",0.00167
same,solubility (mole fraction),"in ethanol, 298.15 K",0.002
same,solubility (mole fraction),"in ethanol, 303.15 K",0.00236
same,solubility (mole fraction),"in ethanol, 308.15 K",0.00279
same,solubility (mole fraction),"in ethanol, 313.15 K",0.00334
same,solubility (mole fraction),"in ethanol, 318.15 K",0.00397
same,solubility (mole fraction),"in ethanol, 323.15 K",0.00477
same,solubility (mole fraction),"in ethanol, 328.15 K",0.00566
same,solubility (mole fraction),"in ethanol, 333.15 K",0.00663
same,solubility (mole fraction),"in ethanol, 338.15 K",0.00795
same,solubility (mole fraction),"in ethanol, 343.15 K",0.00957
same,solubility (mole fraction),"in ethyl acetate, 293.15 K",0.00331
same,solubility (mole fraction),"in ethyl acetate, 298.15 K",0.00361
same,solubility (mole fraction),"in ethyl acetate, 303.15 K",0.00393
same,solubility (mole fraction),"in ethyl acetate, 308.15 K",0.00426
same,solubility (mole fraction),"in ethyl acetate, 313.15 K",0.00465
same,solubility (mole fraction),"in ethyl acetate, 318.15 K",0.0051
same,solubility (mole fraction),"in ethyl acetate, 323.15 K",0.00559
same,solubility (mole fraction),"in ethyl acetate, 328.15 K",0.0061
same,solubility (mole fraction),"in ethyl acetate, 333.15 K",0.00668
same,solubility (mole fraction),"in ethyl acetate, 338.15 K",0.00737
same,solubility (mole fraction),"in ethyl acetate, 343.15 K",0.00805
same,solubility (mole fraction),"in isopropanol, 293.15 K",0.00127
same,solubility (mole fraction),"in isopropanol, 298.15 K",0.00161
same,solubility (mole fraction),"in isopropanol, 303.15 K",0.00202
same,solubility (mole fraction),"in isopropanol, 308.15 K",0.00249
same,solubility (mole fraction),"in isopropanol, 313.15 K",0.00305
same,solubility (mole fraction),"in isopropanol, 318.15 K",0.0038
same,solubility (mole fraction),"in isopropanol, 323.15 K",0.00456
same,solubility (mole fraction),"in isopropanol, 328.15 K",0.00566
same,solubility (mole fraction),"in isopropanol, 333.15 K",0.00683
same,solubility (mole fraction),"in isopropanol, 338.15 K",0.00813
same,solubility (mole fraction),"in isopropanol, 343.15 K",0.00973
same,solubility (mole fraction),"in isopropanol, 348.15 K",0.0121
